# Measured values as given in patent publication US6355799B1, “Substituted benzene compounds, process for their preparation, and herbicidal and defoliant compositions containing them” (ISK Americas Incorporated, priority 1997, dated 2002).
# Key:
# Assay type in all cases: in vivo
# [1] = tested on: redroot pigweed (Amaranthus retroflexus, AMARE); assay: Pre-emerge test, greenhouse herbicide activity screening
# Outline: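 Sandy loam pots; pre-emerge: sown 1 d pre-spray, surface-watered after, then bottom-watered. Post-emerge: sown 8–21 d before, 2–3 leaf stage, + 0.25% v/v NIS, bottom-watered. Acetone, 187 l/ha track spray, 15–1000 g ai/ha. 0–100 injury score, day 14.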
# [2] = tested on: barnyardgrass (Echinochloa crus-galli, ECHCG); assay: as above
# Outline: (§1)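 Compounds in acetone were track-sprayed at 187 l/ha, 15–1000 g ai/ha, onto sandy loam pots. Pre-emerge seeds were sown one day before spraying, with surface watering afterwards. Post-emerge plants were at the 2–3 leaf stage and sprayed with 0.25% v/v non-ionic surfactant. Injury was rated 0–100 at 14 days.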
# [3] = tested on: green foxtail (Setaria viridis, SETVI); assay: as above
# Outline: as §1
# [4] = tested on: ivyleaf morningglory (Ipomoea hederacea, IPOHE); assay: as above
# Outline: as §1
# [5] = tested on: johnsongrass (Sorghum halepense, SORHA); assay: as above
# Outline: as §1
# [6] = tested on: lambsquarters (Chenopodium album, CHEAL); assay: as above
# Outline: as §1
# [7] = tested on: large crabgrass (Digitaria sanguinalis, DIGSA); assay: as above
# Outline: as §1
# [8] = tested on: sicklepod (Cassia obtusifolia, CASOB); assay: as above
# Outline: as §1
# [9] = tested on: velvetleaf (Abutilon theophrasti, ABUTH); assay: as above
# Outline: as §1
# [10] = tested on: field corn (Zea mays L., var. Dekalb 535, CORN); assay: Pre-emerge test, crop safety
# Outline: (§2)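 Applied at 15–1000 g ai/ha from acetone in 187 l/ha spray volume. Post-emergence applications included 0.25% v/v non-ionic surfactant and reached plants sown 8–21 days before. Pre-emergence applications were incorporated by surface watering. Efficacy or crop damage was rated on a 0–100 scale after 14 days.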
# [11] = tested on: upland rice (Oryza sp., var. Tebonnet, RICE); assay: Pre-emerge test, crop safety
# Outline: as §2
# [12] = tested on: barnyardgrass (Echinochloa crus-galli, ECHCG); assay: Post-emerge test, greenhouse herbicide activity screening; conditions: post-emerge; for phytotoxicity rating ECHCG: 14 days after application, rating scale 0-100; for Post-emerge Herbicidal Activity ECHCG: phytotoxicity rating 0-100 at 14 days after application
# Outline: (§3)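 Each test used a mechanized track sprayer delivering 187 l/ha of acetone solution at 15–1000 g ai/ha. Post-emerge foliage at 2–3 leaves was treated with added 0.25% v/v non-ionic surfactant and bottom-watered only. Injury was assessed on day 14, where 100 means total kill.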
# [13] = tested on: green foxtail (Setaria viridis, SETVI); assay: as above; conditions: post-emerge; for phytotoxicity rating SETVI: 14 days after application, rating scale 0-100; for Post-emerge Herbicidal Activity SETVI: phytotoxicity rating 0-100 at 14 days after application
# Outline: as §3
# [14] = tested on: ivyleaf morningglory (Ipomoea hederacea, IPOHE); assay: as above; conditions: post-emerge; for phytotoxicity rating IPOHE: 14 days after application, rating scale 0-100; for Post-emerge Herbicidal Activity IPOHE: phytotoxicity rating 0-100 at 14 days after application
# Outline: as §3
# [15] = tested on: lambsquarters (Chenopodium album, CHEAL); assay: as above; conditions: post-emerge; for phytotoxicity rating CHEAL: 14 days after application, rating scale 0-100; for Post-emerge Herbicidal Activity CHEAL: phytotoxicity rating 0-100 at 14 days after application
# Outline: as §3
# [16] = tested on: large crabgrass (Digitaria sanguinalis, DIGSA); assay: as above; conditions: post-emerge; for phytotoxicity rating DIGSA: 14 days after application, rating scale 0-100; for Post-emerge Herbicidal Activity DIGSA: phytotoxicity rating 0-100 at 14 days after application
# Outline: as §3
# [17] = tested on: redroot pigweed (Amaranthus retroflexus, AMARE); assay: as above; conditions: post-emerge; for phytotoxicity rating AMARE: 14 days after application; for Post-emerge Herbicidal Activity AMARE: phytotoxicity rating 0-100 at 14 days after application
# Outline: as §3
# [18] = tested on: sicklepod (Cassia obtusifolia, CASOB); assay: as above; conditions: post-emerge; for phytotoxicity rating CASOB: 14 days after application, rating scale 0-100; for Post-emerge Herbicidal Activity CASOB: phytotoxicity rating 0-100 at 14 days after application
# Outline: as §3
# [19] = tested on: velvetleaf (Abutilon theophrasti, ABUTH); assay: as above; conditions: post-emerge; for phytotoxicity rating ABUTH: 14 days after application, rating scale 0-100; for Post-emerge Herbicidal Activity ABUTH: phytotoxicity rating 0-100 at 14 days after application
# Outline: as §3
# [20] = tested on: field corn (Zea mays L., var. Dekalb 535, CORN); assay: Post-emerge test, crop safety; conditions: post-emerge; for phytotoxicity rating CORN (crop damage): 14 days after application, rating scale 0-100; for Post-emerge Herbicidal Activity CORN: crop damage rating 0-100 at 14 days after application
# Outline: as §1
# [21] = tested on: upland rice (Oryza sp., var. Tebonnet, RICE); assay: Post-emerge test, crop safety; conditions: post-emerge; for phytotoxicity rating RICE (crop damage): 14 days after application, rating scale 0-100; for Post-emerge Herbicidal Activity RICE: crop damage rating 0-100 at 14 days after application
# Outline: as §1
# [22] = 63 g ai/ha, phytotoxicity rating 0-100, 14 days after application
# [23] = 250 g ai/ha, phytotoxicity rating 0-100, 14 days after application
# [24] = 63 g ai/ha, crop damage rating 0-100, 14 days after application
# [25] = 250 g ai/ha, crop damage rating 0-100, 14 days after application
# [26] = pre-emerge, rate 63 g ai/ha, phytotoxicity rating 0-100 at 14 days after application
# [27] = pre-emerge, rate 250 g ai/ha, phytotoxicity rating 0-100 at 14 days after application
# [28] = crop damage, pre-emerge, rate 63 g ai/ha, phytotoxicity rating 0-100 at 14 days after application
# [29] = crop damage, pre-emerge, rate 250 g ai/ha, phytotoxicity rating 0-100 at 14 days after application
compound,measurement,setting,value
COc1c(Cl)cc(F)c(-n2c(=O)cc(C(F)(F)F)n(C)c2=O)c1NC(=O)OC(c1ccccc1)C1CC1 (stereo not drawn) [4-46],Pre-emerge Herbicidal Activity AMARE,[1]; [22],80
same,Pre-emerge Herbicidal Activity AMARE,[1]; [23],100
same,Pre-emerge Herbicidal Activity ECHCG,[2]; [22],20
same,Pre-emerge Herbicidal Activity ECHCG,[2]; [23],60
same,Pre-emerge Herbicidal Activity SETVI,[3]; [22],40
same,Pre-emerge Herbicidal Activity SETVI,[3]; [23],100
same,Pre-emerge Herbicidal Activity IPOHE,[4]; [22],10
same,Pre-emerge Herbicidal Activity IPOHE,[4]; [23],85
same,Pre-emerge Herbicidal Activity SORHA,[5]; [22],20
same,Pre-emerge Herbicidal Activity SORHA,[5]; [23],60
same,Pre-emerge Herbicidal Activity CHEAL,[6]; [22],100
same,Pre-emerge Herbicidal Activity CHEAL,[6]; [23],100
same,Pre-emerge Herbicidal Activity DIGSA,[7]; [22],70
same,Pre-emerge Herbicidal Activity DIGSA,[7]; [23],95
same,Pre-emerge Herbicidal Activity CASOB,[8]; [22],30
same,Pre-emerge Herbicidal Activity CASOB,[8]; [23],40
same,Pre-emerge Herbicidal Activity ABUTH,[9]; [22],50
same,Pre-emerge Herbicidal Activity ABUTH,[9]; [23],100
same,Pre-emerge Herbicidal Activity CORN,[10]; [24],0
same,Pre-emerge Herbicidal Activity CORN,[10]; [25],5
same,Pre-emerge Herbicidal Activity RICE,[11]; [24],10
same,Pre-emerge Herbicidal Activity RICE,[11]; [25],50
same,phytotoxicity rating ECHCG,[12]; 63 g ai/ha,20
same,phytotoxicity rating ECHCG,[12]; 250 g ai/ha,30
same,phytotoxicity rating SETVI,[13]; 63 g ai/ha,10
same,phytotoxicity rating SETVI,[13]; 250 g ai/ha,10
same,phytotoxicity rating IPOHE,[14]; 63 g ai/ha,100
same,phytotoxicity rating IPOHE,[14]; 250 g ai/ha,90
same,phytotoxicity rating CHEAL,[15]; 63 g ai/ha,90
same,phytotoxicity rating CHEAL,[15]; 250 g ai/ha,100
same,phytotoxicity rating DIGSA,[16]; 63 g ai/ha,0
same,phytotoxicity rating DIGSA,[16]; 250 g ai/ha,20
same,phytotoxicity rating AMARE,"[17]; 63 g ai/ha, rating scale 0-100 (0 no damage, 100 complete death)",100
same,phytotoxicity rating AMARE,"[17]; 250 g ai/ha, rating scale 0-100",100
same,phytotoxicity rating CASOB,[18]; 63 g ai/ha,80
same,phytotoxicity rating CASOB,[18]; 250 g ai/ha,95
same,phytotoxicity rating ABUTH,[19]; 63 g ai/ha,95
same,phytotoxicity rating ABUTH,[19]; 250 g ai/ha,90
same,phytotoxicity rating CORN (crop damage),[20]; 63 g ai/ha,10
same,phytotoxicity rating CORN (crop damage),[20]; 250 g ai/ha,80
same,phytotoxicity rating RICE (crop damage),[21]; 63 g ai/ha,10
same,phytotoxicity rating RICE (crop damage),[21]; 250 g ai/ha,70
O=C(Nc1cc(Cl)ccc1-n1c(=O)n2n(c1=S)CCCC2)c1ccc2ccccc2c1 [9-14],Pre-emerge Herbicidal Activity AMARE,[1]; [26],40
same,Pre-emerge Herbicidal Activity AMARE,[1]; [27],65
same,Pre-emerge Herbicidal Activity ECHCG,[2]; [26],0
same,Pre-emerge Herbicidal Activity ECHCG,[2]; [27],40
same,Pre-emerge Herbicidal Activity SETVI,[3]; [26],0
same,Pre-emerge Herbicidal Activity SETVI,[3]; [27],30
same,Pre-emerge Herbicidal Activity IPOHE,[4]; [26],0
same,Pre-emerge Herbicidal Activity IPOHE,[4]; [27],10
same,Pre-emerge Herbicidal Activity SORHA,[5]; [26],0
same,Pre-emerge Herbicidal Activity SORHA,[5]; [27],10
same,Pre-emerge Herbicidal Activity CHEAL,[6]; [26],80
same,Pre-emerge Herbicidal Activity CHEAL,[6]; [27],100
same,Pre-emerge Herbicidal Activity DIGSA,[7]; [26],0
same,Pre-emerge Herbicidal Activity DIGSA,[7]; [27],30
same,Pre-emerge Herbicidal Activity CASOB,[8]; [26],0
same,Pre-emerge Herbicidal Activity CASOB,[8]; [27],0
same,Pre-emerge Herbicidal Activity ABUTH,[9]; [26],20
same,Pre-emerge Herbicidal Activity ABUTH,[9]; [27],85
same,Pre-emerge Herbicidal Activity CORN,[10]; [28],0
same,Pre-emerge Herbicidal Activity CORN,[10]; [29],0
same,Pre-emerge Herbicidal Activity RICE,[11]; [28],0
same,Pre-emerge Herbicidal Activity RICE,[11]; [29],10
same,Post-emerge Herbicidal Activity ECHCG,[12]; 63 g ai/ha,0
same,Post-emerge Herbicidal Activity ECHCG,[12]; 250 g ai/ha,10
same,Post-emerge Herbicidal Activity SETVI,[13]; 63 g ai/ha,10
same,Post-emerge Herbicidal Activity SETVI,[13]; 250 g ai/ha,20
same,Post-emerge Herbicidal Activity IPOHE,[14]; 63 g ai/ha,80
same,Post-emerge Herbicidal Activity IPOHE,[14]; 250 g ai/ha,90
same,Post-emerge Herbicidal Activity CHEAL,[15]; 63 g ai/ha,95
same,Post-emerge Herbicidal Activity CHEAL,[15]; 250 g ai/ha,100
same,Post-emerge Herbicidal Activity DIGSA,[16]; 63 g ai/ha,0
same,Post-emerge Herbicidal Activity DIGSA,[16]; 250 g ai/ha,10
same,Post-emerge Herbicidal Activity AMARE,[17]; 63 g ai/ha,85
same,Post-emerge Herbicidal Activity AMARE,[17]; 250 g ai/ha,100
same,Post-emerge Herbicidal Activity CASOB,[18]; 63 g ai/ha,40
same,Post-emerge Herbicidal Activity CASOB,[18]; 250 g ai/ha,40
same,Post-emerge Herbicidal Activity ABUTH,[19]; 63 g ai/ha,100
same,Post-emerge Herbicidal Activity ABUTH,[19]; 250 g ai/ha,100
same,Post-emerge Herbicidal Activity CORN,[20]; 63 g ai/ha,15
same,Post-emerge Herbicidal Activity CORN,[20]; 250 g ai/ha,50
same,Post-emerge Herbicidal Activity RICE,[21]; 63 g ai/ha,0
same,Post-emerge Herbicidal Activity RICE,[21]; 250 g ai/ha,40
